Test results reported in ChEMBL document CHEMBL1141877 (J Med Chem, 2005).

Columns and labels:
[1] = biological target: T1, Acetylcholinesterase (Rattus norvegicus, UniProt P37136); test: Inhibitory concentration against acetylcholinesterase of rat cortex homogenate
T1 sequence (P37136 whole entry): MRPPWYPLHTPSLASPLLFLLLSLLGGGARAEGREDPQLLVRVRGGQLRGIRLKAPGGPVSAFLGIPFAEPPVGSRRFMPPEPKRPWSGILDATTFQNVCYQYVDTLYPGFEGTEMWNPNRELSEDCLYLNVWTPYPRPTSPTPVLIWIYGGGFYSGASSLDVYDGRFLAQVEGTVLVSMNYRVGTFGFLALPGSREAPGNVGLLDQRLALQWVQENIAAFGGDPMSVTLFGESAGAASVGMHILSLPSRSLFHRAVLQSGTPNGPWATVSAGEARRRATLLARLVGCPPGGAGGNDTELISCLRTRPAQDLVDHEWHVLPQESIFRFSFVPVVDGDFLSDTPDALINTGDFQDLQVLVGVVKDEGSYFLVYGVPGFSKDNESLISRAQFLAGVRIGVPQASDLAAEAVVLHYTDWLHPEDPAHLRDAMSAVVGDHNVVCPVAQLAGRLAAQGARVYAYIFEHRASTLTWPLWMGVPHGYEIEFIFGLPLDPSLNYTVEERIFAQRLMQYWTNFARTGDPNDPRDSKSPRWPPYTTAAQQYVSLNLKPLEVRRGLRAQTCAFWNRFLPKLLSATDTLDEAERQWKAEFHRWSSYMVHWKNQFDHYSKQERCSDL

[2] = biological target: Butyrylcholinesterase (Rattus norvegicus, UniProt Q9JKC1); test: Inhibitory concentration against butyrylcholinesterase of rat serum
Chain of Butyrylcholinesterase (Q9JKC1 whole entry): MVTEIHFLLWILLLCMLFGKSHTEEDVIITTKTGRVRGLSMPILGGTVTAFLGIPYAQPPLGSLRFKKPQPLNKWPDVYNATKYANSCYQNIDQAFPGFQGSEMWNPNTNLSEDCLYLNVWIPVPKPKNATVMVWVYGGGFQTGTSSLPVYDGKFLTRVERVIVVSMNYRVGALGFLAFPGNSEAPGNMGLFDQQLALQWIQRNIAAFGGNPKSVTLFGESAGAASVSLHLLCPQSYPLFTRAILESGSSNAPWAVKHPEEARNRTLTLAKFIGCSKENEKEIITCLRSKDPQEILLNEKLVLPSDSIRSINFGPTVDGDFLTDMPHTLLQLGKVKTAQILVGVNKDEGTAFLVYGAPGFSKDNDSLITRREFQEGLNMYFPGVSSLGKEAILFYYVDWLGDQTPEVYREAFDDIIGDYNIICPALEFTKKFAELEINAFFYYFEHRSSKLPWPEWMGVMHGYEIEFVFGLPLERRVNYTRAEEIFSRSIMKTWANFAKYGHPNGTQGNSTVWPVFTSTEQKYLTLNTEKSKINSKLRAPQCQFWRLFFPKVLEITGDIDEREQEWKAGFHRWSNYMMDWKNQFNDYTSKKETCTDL

SMILES | IC50 [1] [µM] | IC50 [2] [µM]
CC1=CC2Cc3[nH]c(=O)ccc3[C@@]3(C1)[C@@H]2CCCN3C(=O)CN(C)CCCCCCN(C)CC(=O)N1CCC[C@@H]2C3C=C(C)C[C@]21c1ccc(=O)[nH]c1C3 [BIS(12)-HUPERZINE B] | 0.0762 | 64.5
CC1=CC2Cc3[nH]c(=O)ccc3[C@@]3(C1)[C@@H]2CCCN3C(=O)CCN(C)CCCCCCN(C)CCC(=O)N1CCC[C@@H]2C3C=C(C)C[C@]21c1ccc(=O)[nH]c1C3 | 0.0359 | 67.9
CC1=CC2Cc3[nH]c(=O)ccc3[C@@]3(C1)[C@@H]2CCCN3C(=O)CCN(C)CCCCCCCCCCCCN(C)CCC(=O)N1CCC[C@@H]2C3C=C(C)C[C@]21c1ccc(=O)[nH]c1C3 [BIS(20)-HUPERZINE B] | 0.0252 | 88.4
CC1=CC2Cc3[nH]c(=O)ccc3[C@@]3(C1)[C@@H]2CCCN3C(=O)CN(C)CCCCCCCCN(C)CC(=O)N1CCC[C@@H]2C3C=C(C)C[C@]21c1ccc(=O)[nH]c1C3 | 0.0508 | 65.4
CC1=CC2Cc3[nH]c(=O)ccc3[C@@]3(C1)[C@@H]2CCCN3C(=O)CN(C)CCCN(C)CC(=O)N1CCC[C@@H]2C3C=C(C)C[C@]21c1ccc(=O)[nH]c1C3 [BIS(9)-HUPERZINE B] | 0.471 | 60
CC1=CC2Cc3[nH]c(=O)ccc3[C@@]3(C1)[C@@H]2CCCN3C(=O)CCN(C)CCCCCCCCCCN(C)CCC(=O)N1CCC[C@@H]2C3C=C(C)C[C@]21c1ccc(=O)[nH]c1C3 [BIS(18)-HUPERZINE B] | 0.00493 | 54.3
CC1=CC2Cc3[nH]c(=O)ccc3[C@@]3(C1)[C@@H]2CCCN3C(=O)CN(C)CCN(C)CC(=O)N1CCC[C@@H]2C3C=C(C)C[C@]21c1ccc(=O)[nH]c1C3 [BIS(8)-HUPERZINE B] | 1.02 | 
CC1=C[C@H]2Cc3[nH]c(=O)ccc3[C@]3(C1)NCCC[C@H]23 [HUPERZINE B] | 19.3 | 227
CC1=CC2Cc3[nH]c(=O)ccc3[C@@]3(C1)[C@@H]2CCCN3C(=O)CCN(C)CCCCCCCCN(C)CCC(=O)N1CCC[C@@H]2C3C=C(C)C[C@]21c1ccc(=O)[nH]c1C3 [BIS(16)-HUPERZINE B] | 0.0185 | 63
